Entries after “also recorded” stand apart in the source; their conditions may differ.
Legend:
sFGFR = experiment: aFGF/sFGFR/heparin complex formation by non-denaturing PAGE; format: binding, human; details: aFGF alone or heparin alone
Method: aFGF, heparin or a mixture of aFGF and heparin were added to sFGFR. Free aFGF and sFGFR were separated from the complexes by gel-filtration, and fractions containing the complexes were analyzed by non-denaturing PAGE. Proteins were visualized by staining with Coomasie Brilliant blue. Various oligomerization states of aFGF/sFGFR are detected only in the presence of heparin.
aFGF alone, or a pre-incubated mixture of heparin and aFGF (molar ratio 1:10) was added to a solution containing sFGFR. The mixtures were then incubated for 20 min at room temperature in 20 mM Hepes pH 7.5, 200 mM NaCl. Size-exclusion chromatography, using a Superose 12 column (Pharmacia), was then employed to separate free aFGF and sFGFR from the complex that formed. Fractions containing the isolated complexes were pooled, and analyzed by non-denaturing PAGE (4-15% gradient gels), using the Phastsystem (Pharmacia). Gels were stained with Coomassie Blue. In the case of the sFGFR/heparin mixture (FIG. 4, lane 2), heparin was simply added to the sFGFR solution prior to electrophoresis.
The requirement of both heparin and aFGF for the induction of sFGFR dimerization was also confirmed in a second experimental system. sFGFR was incubated with aFGF alone, or with aFGF plus heparin.

[1] = molecular target: sFGFR (soluble extracellular domain of FGFR2 (bek)); experiment: Isothermal titration calorimetry, aFGF binding to sFGFR; design: species or system human; details: ITC
Description: A plasmid encoding the extracellular, ligand-binding domain of human FGFR2 (residues 1-355) was constructed using standard oligonucleotide-directed mutagenesis (Amersham) to introduce a translational termination codon immediately prior to the beginning of the single transmembrane domain of the receptor (Dionne et al., 1990). BamHI and SacII restriction sites were introduced 3' to the new termination codon. An XbaI-SacII fragment was isolated from the replicative form (RF) of this M13 mutagenesis product, filled in using T4 DNA polymerase (Boehringer-Mannheim) and inserted into the SmaI site of the expression vector pCVN (Dionne et al., 1990). This expression vector, which contains both the neomycin resistance and the dihydrofolate reductase genes for selection and amplification, was transfected into CHO cells following published procedures. Wigler et al., 1979, Cell 16:777-785.
The binding of aFGF to sFGFR was studied using the technique of isothermal titration calorimetry (ITC). In this technique the heat liberated (or absorbed) upon binding is monitored as small aliquots of ligand are added sequentially to a solution of the receptor at known concentration, which is maintained at constant temperature. […]

## aFGF: aFGF was expressed in E. coli and purified by binding to a heparin-sepharose column
sFGFR
  mobility of sFGFR in non-denaturing PAGE: reduced slightly
[1]; single class of binding sites, mean ± SD of three experiments, no added heparin
  Kd: 528 ± 173 nM

## heparin
sFGFR
  mobility of sFGFR in non-denaturing PAGE: no significant effect upon the migration of sFGFR
[1]; sFGFR titrated into mixture of heparin and aFGF
  effect of heparin on the aFGF/sFGFR binding parameters: no effect upon the binding parameters could be detected; also recorded: does not detectably affect the interaction; also recorded: does not influence the affinity of the aFGF/sFGFR interaction
